Test results taken from patent EP4656642A1, “ESTROGEN RECEPTOR PROTEOLYSIS TARGETING CHIMERA COMPOUND AND USE THEREOF” (GAN & LEE PHARM CO., LTD, priority 2023, dated 2024).

Columns and labels:
Type in all cases: cell-based
T-47D cells = assay: Inhibition of cell proliferation in T-47D cells (CCK-8, 6 days); conditions: 6 days of treatment
Description: Test Example 2: Inhibitory effect of the PROTAC compounds provided in the present disclosure on cell proliferation in T-47D cells (source ATCC)
The complete medium required for T-47D cells was 1640 ( ATCC, Product number: A10491-01) basal medium containing 10% fetal bovine serum. T-47D cells were inoculated in 96-well plates at a density of 3,000 cells/well, and different concentrations of the PROTAC compounds 1-55 provided in the examples of the present disclosure and a positive control sample ARV-471 (source: Innochem) were prepared to treat cells, and the cells were treated at 37°C in a cell culture incubator with 5% CO2 for 6 days. Cell viability was detected using a CCK-8 kit (Beyotime, Product number: C0040) according to the manufacturer's instructions. […] Table 2 IC50 values for inhibition of the proliferation of T-47D cells by the PROTAC compounds provided by the present disclosure and the positive control sample

ERα [1] = biological target: T1, ERα (Homo sapiens, UniProt P03372); assay: Degradation of ERα in T-47D cells (immunoblotting, 4 h); parameters: host or cells: T-47D
T1 sequence (P03372 1-595): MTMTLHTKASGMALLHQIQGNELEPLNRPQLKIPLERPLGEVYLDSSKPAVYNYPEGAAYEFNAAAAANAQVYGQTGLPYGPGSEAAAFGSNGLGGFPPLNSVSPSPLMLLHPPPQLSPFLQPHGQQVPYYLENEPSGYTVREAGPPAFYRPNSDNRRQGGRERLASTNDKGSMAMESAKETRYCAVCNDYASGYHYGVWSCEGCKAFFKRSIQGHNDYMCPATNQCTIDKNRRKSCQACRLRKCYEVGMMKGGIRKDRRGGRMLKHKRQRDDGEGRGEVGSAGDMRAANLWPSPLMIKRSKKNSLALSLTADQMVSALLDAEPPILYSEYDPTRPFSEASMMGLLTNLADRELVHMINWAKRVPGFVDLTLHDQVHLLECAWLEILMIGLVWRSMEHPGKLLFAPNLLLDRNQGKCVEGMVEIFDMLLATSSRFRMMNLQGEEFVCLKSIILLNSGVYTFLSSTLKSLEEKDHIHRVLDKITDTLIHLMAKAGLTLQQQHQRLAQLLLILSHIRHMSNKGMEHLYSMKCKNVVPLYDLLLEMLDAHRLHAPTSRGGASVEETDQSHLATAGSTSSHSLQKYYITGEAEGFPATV
Procedure, shortened: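 T-47D cells were treated with compound (final 0.15-1000 nM, DMSO) for 4 h at 37°C, 5% CO2. Cells were lysed in RIPA buffer with protease inhibitor, and ERα protein in the cleared lysate was measured by immunoblotting.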

ERα [2] = biological target: T1, ERα; assay: Degradation of ERα in MCF-7 cells (immunoblotting, 4 h)
Procedure, shortened: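 MCF-7 cells treated 4 h at 37°C with compounds at 0.15-1000nM final. ERα in lysates measured by immunoblot, with band grayscale normalized to an internal reference protein. Degradation rate calculated against DMSO-treated control.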

MCF-7 cells = assay: Inhibition of cell proliferation of MCF-7 cells (CCK-8, 9 days); conditions: treated for 9 days, CCK-8 kit (Table 6)
Procedure, shortened: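 MCF-7 cells seeded at 800 cells/well in DMEM with 10% FBS, exposed to a range of compound concentrations for 9 days at 37°C, 5% CO2. Viability read by CCK-8; IC50 derived for proliferation inhibition.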

IC50 (T-47D cells; Table 2)	Degradation rate (%) of ERα in T-47D cells (ERα [1]; 1nM compound)	Degradation rate (%) of ERα in T-47D cells (ERα [1]; 10nM compound)	Degradation rate (%) of ERα in MCF-7 cells (ERα [2]; 1nM compound)	Degradation rate (%) of ERα in MCF-7 cells (ERα [2]; 10nM compound)	IC50 (MCF-7 cells)	SMILES	IC50 (T-47D cells; Table 3)
101 nM						O=C1CCC(N2C(=O)c3cc4c(cc3C2=O)OC2(CC4)CN(C3CC4(CCN(c5ccc(C6c7ccc(O)cc7CCC6c6ccccc6)cc5)CC4)C3)C2)C(=O)N1 (stereo not drawn) [M9]	
14 nM	22%	54%				O=C1CCC(N2C(=O)c3cc4c(cc3C2=O)OC2(CC4)CN(C3CC4(CCN(c5ccc([C@@H]6c7ccc(O)cc7CC[C@@H]6c6ccccc6)cc5)CC4)C3)C2)C(=O)N1 (stereo partly drawn) [M10]	
	56%	67%	2%	13%		N#CC1(CN2CCC3(CC2)COc2c3ccc3c2CN(C2CCC(=O)NC2=O)C3=O)CCN(CC2CCN(c3ccc([C@@H]4c5ccc(O)cc5CC[C@@H]4c4ccccc4)cc3)CC2)CC1 (stereo partly drawn) [N7]	1.72 nM
91 nM		-22%		-5%		O=C1CCC(N2C(=O)c3cc4c(cc3C2=O)C2(CCN(C3CCN(c5ccc(C6c7ccc(O)cc7CCC6c6ccccc6)cc5)CC3)CC2)CO4)C(=O)N1 (stereo not drawn) [A16]	
180 nM						O=C1CCC(N2C(=O)c3cc4c(cc3C2=O)OCC2(CCN(C3CC5(C3)CN(c3ccc(C6c7ccc(O)cc7CCC6c6ccccc6)cc3)C5)CC2)C4)C(=O)N1 (stereo not drawn) [O2]	
						O=C1CCC(N2Cc3cc4c(cc3C2=O)CCC2(CN(CC3CCC5(CC3)CCN(c3ccc([C@@H]6c7ccc(O)cc7CC[C@@H]6c6ccccc6)cc3)CC5)C2)O4)C(=O)N1 (stereo partly drawn) [A3 8]	15 nM
	68%	81%	54%	70%	3.07 nM	O=C1CCC(N2Cc3c(ccc4c3OCC43CCN(C(=O)C4CCC(CN5CCN(c6ccc(C7c8ccc(O)cc8CCC7c7ccccc7)cc6)CC5)CC4)CC3)C2=O)C(=O)N1 (stereo not drawn) [G16]	
	15%	49%	10%	29%	1420 nM	O=C1CCC(N2Cc3ccc4c(c3C2=O)OCC2(CCN(C3CC5(CCN(c6ccc([C@@H]7c8ccc(O)cc8CC[C@@H]7c7ccccc7)cc6)CC5)C3)CC2)C4)C(=O)N1 (stereo partly drawn) [L9]	
	67%	80%	69%	68%	3.24 nM	O=C1CCC(N2Cc3c(ccc4c3OCC43CCN(C(=O)CN4CCC5(CCN(c6ccc([C@@H]7c8ccc(O)cc8CC[C@@H]7c7ccccc7)cc6)CC5)C4)CC3)C2=O)C(=O)N1 (stereo partly drawn) [A63]	
	59%	65%	53%	43%	3.81 nM	C[C@@H]1Cc2cc(O)ccc2C(c2c(F)cc(N3CCC(C(=O)N4CCC(N5CCC6(CC5)COc5c6ccc6c5CN(C5CCC(=O)NC5=O)C6=O)[C@H](F)C4)CC3)cc2F)N1CC(F)F (stereo partly drawn) [F10]	
	9%	44%	9%	48%	970 nM	O=C1CCC(N2C(=O)c3ccc4c(c3C2=O)OCC42CCN(C3CCC4(CC3)CCN(c3ccc([C@@H]5c6ccc(O)cc6CC[C@@H]5c5ccccc5)cc3)CC4)CC2)C(=O)N1 (stereo partly drawn) [L4]	
	52%	52%	18%	20%	56400 nM	O=C1CCC(N2Cc3c(ccc4c3OCC43CCN(C(=O)CC4CCN(c5ccc([C@@H]6c7ccc(O)cc7CC[C@@H]6c6ccccc6)cc5)CC4)CC3)C2=O)C(=O)N1 (stereo partly drawn) [A124]	
	33%	75%	9%	62%	11400 nM	O=C1CCC(N2Cc3c(ccc4c3OCC43CCN(C(=O)[C@H]4CC[C@H](OC5CCN(c6ccc([C@@H]7c8ccc(O)cc8CC[C@@H]7c7ccccc7)cc6)CC5)CC4)CC3)C2=O)C(=O)N1 (stereo partly drawn) [D8]	
	66%	83%	38%	55%	312 nM	O=C1CCC(N2Cc3c(ccc4c3OCC43CCN(CC(=O)N4CC5(C4)CN(c4ccc([C@@H]6c7ccc(O)cc7CC[C@@H]6c6ccccc6)cc4)C5)CC3)C2=O)C(=O)N1 (stereo partly drawn) [B21]	
	11%	34%	4%	-4%	510 nM	O=C1CCC(N2C(=O)c3ccc4c(c3C2=O)OCC42CCN(C3CCC4(CC3)CN(c3ccc([C@@H]5c6ccc(O)cc6CC[C@@H]5c5ccccc5)cc3)C4)CC2)C(=O)N1 (stereo partly drawn) [L7]	
	36%	66%	1%	56%	936 nM	CN(C(=O)CN1CCC2(CC1)COc1c2ccc2c1C(=O)N(C1CCC(=O)NC1=O)C2=O)C1CCC2(CC1)CN(c1ccc([C@@H]3c4ccc(O)cc4CC[C@@H]3c3ccccc3)cc1)C2 (stereo partly drawn) [K44]	
	62%	86%	66%	86%	8.18 nM	CC1(C)CC(N2CCC3(CC2)COc2c3ccc3c2CN(C2CCC(=O)NC2=O)C3=O)CCN1C(=O)C1CCN(c2ccc([C@@H]3c4ccc(O)cc4CC[C@@H]3c3ccccc3)cc2)CC1 (stereo partly drawn) [K28]	
	70%	88%	50%	73%	6.12 nM	CN(CC(=O)N1CCC2(CC1)COc1c2ccc2c1CN(C1CCC(=O)NC1=O)C2=O)CC1CCN(c2ccc([C@@H]3c4ccc(O)cc4CC[C@@H]3c3ccccc3)cc2)CC1 (stereo partly drawn) [J10]	
	-11%	-23%	-77%	-70%	5900 nM	O=C1CCC(N2Cc3cc4c(cc3C2=O)CCC2(CN(CC3CCN(c5ccc([C@@H]6c7ccc(O)cc7CC[C@@H]6c6ccccc6)cc5)CC3)C2)O4)C(=O)N1 (stereo partly drawn) [H2]	
	55%	74%	5%	39%	9660 nM	C[C@@H]1Cc2c(ccc3[nH]ncc23)C(c2ccc(N3CCC4(CCN(C(=O)CN5CCC6(CC5)COc5c6ccc6c5CN(C5CCC(=O)NC5=O)C6=O)C4)CC3)cn2)N1CC(F)(F)F (stereo partly drawn) [J14]	
	76%	86%	75%	76%	10.5 nM	O=C1CCC(N2Cc3c(ccc4c3OCC43CCN(C(=O)C4CCN(CC5CCN(c6ccc([C@@H]7c8ccc(O)cc8CC[C@@H]7c7ccccc7)cc6)CC5)CC4)CC3)C2=O)C(=O)N1 (stereo partly drawn) [K34]	
	53%	78%	38%	71%	1260 nM	CN(CC(=O)N1CCC2(CC1)COc1c2ccc2c1CN(C1CCC(=O)NC1=O)C2=O)C1CC2(CCN(c3ccc([C@@H]4c5ccc(O)cc5CC[C@@H]4c4ccccc4)cc3)CC2)C1 (stereo partly drawn) [H48]	

SMILES	IC50 (T-47D cells; Table 2)	Degradation rate (%) of ERα in T-47D cells (ERα [1]; 1nM compound)	Degradation rate (%) of ERα in T-47D cells (ERα [1]; 10nM compound)	Degradation rate (%) of ERα in MCF-7 cells (ERα [2]; 1nM compound)	Degradation rate (%) of ERα in MCF-7 cells (ERα [2]; 10nM compound)	IC50 (MCF-7 cells)	IC50 (T-47D cells; Table 3)
O=C1CCC(N2Cc3cc4c(cc3C2=O)OC2(CC4)CCN(C(=O)CN3CCC4(CC3)CCN(c3ccc([C@@H]5c6ccc(O)cc6CC[C@@H]5c5ccccc5)cc3)CC4)CC2)C(=O)N1 (stereo partly drawn) [A67]		26%	76%	27%	67%	3.96 nM	
